The source of these data is patent US9733262B2, “Method for measuring blood coagulation” (SEKISUI MEDICAL CO., LTD., priority 2009, dated 2017).

In the assay the test system is commercially available normal plasma (Coagtrol N). Briefly: Fibrinogen measurement by thrombin time method: coagulation time and change in scattered light intensity of normal plasma after adding thrombin reagent. In kind it is biochemical. The note with it: for coagulation time versus addition amount (FIG. 3): agent added to HEPES buffer (pH 7.5) specimen diluent, buffer alone 4.6 seconds. How it is done:
When a fibrinogen concentration in a plasma specimen is measured by a thrombin time method, in general, thrombin is added to plasma to measure a coagulation time, and the concentration is determined from a standard curve prepared using standard solutions having known fibrinogen concentrations. In the procedure, 90 μL of a specimen diluent are added to and mixed with 10 μL of specimen plasma, subsequently 50 μL of a thrombin-containing reagent are added as a blood coagulation activator-containing reagent, and a coagulation time is measured.
In this example, commercially available normal plasma (Coagtrol N, manufactured by Sysmex Corporation) as the plasma specimen, a Coagpia Fbg thrombin reagent (manufactured by Sekisui Medical Co., Ltd.) as the thrombin-containing reagent, and a full-automated blood coagulation time analyzer Coagrex 800 (manufactured by Sysmex Corporation) as a coagulation time measurement apparatus were used. This apparatus employs a scattered light detection method, and change data of scattered light intensity with time can also be obtained along with the coagulation time.
When an HEPES buffer (pH 7.5) was used as the specimen diluent, the commercially available normal plasma coagulated in several seconds (4.6 seconds).
Commercially available normal plasma was measured in the same manner as in Example 1 using the specimen diluent (HEPES buffer, pH 7.5) in which the amount of the blood coagulation time prolonging agent added was adjusted so as to obtain the similar coagulation time. The comparative results of the maximum of a change ΔH in scattered light intensity and of the simultaneous reproducibility of the measurements between in the conventional method and in the present invention were shown in Table 1.
A specimen diluent containing sodium chloride as the blood coagulation time prolonging agent was defined as a conventional method A and a specimen diluent further containing polyethylene glycol (molecular weight: 20000) (hereinafter, referred to as PEG 20000) as an enhancer of a change in light intensity in the conventional method A was defined as a conventional method B, and the specimen diluents were compared with a specimen diluent employing aminoguanidine hydrochloride (present invention) which served as both of the blood coagulation time prolonging agent and the enhancer of a change in light intensity. It should be noted that an HEPES buffer (pH 7.5) was used as a buffer in all of the cases. Further, the concentration of PEG 20000 to be added in the conventional method B was set to 0.1%, because a large amount of PEG 20000 could increase the viscosity of diluent and reduce the accuracy of sampling. The coagulation time of commercially available normal plasma was measured in the same manner as in Example 1 using each specimen diluent. The change of the scattered light intensity in the conventional method B with the addition of PEG 20000 became larger than in the conventional method A without the addition.

The mark [1] stands for this setting: Table 1, agent in specimen diluent (HEPES buffer pH 7.5): NaCl 145 mM, NaBr 110, KBr 105, KCl 135, LiCl 135, guanidine HCl 90, guanidine phosphate 30, guanidine sulfamate 55, aminoguanidine HCl 90, arginine HCl 55, arginine methyl ester 17 mM, single measurement for conventional methods (2)-(5), ten times for the others.
The mark [2] stands for this setting: Table 2, specimen diluent HEPES buffer pH 7.5, NaCl 150 mM (A), NaCl 150 mM + PEG 20000 0.1% (B), aminoguanidine hydrochloride 90 mM, mean of three times measurement.

Each structure is given as a SMILES string. Structures can show the parent of a compound that is named as a salt.

`N=C(N)N.NS(=O)(=O)O` [Guanidine sulfamate] registered a Coagulation time under setting [1] of 11.2 s.
With `N=C(N)NN` [Aminoguanidine hydrochloride], the “coagulation time versus addition amount (FIG. 3)” value is listed as “prolonged in an addition concentration-dependent manner”. The compound also came in with a Coagulation time under setting [1] of 9.7 s. Moreover, the Coagulation time under setting [2] was determined as 10.4 s.
Under setting [1], `[Cl-].[Li+]` [Lithium chloride] displayed a Coagulation time of 10.8 s.
On to `[Br-].[K+]` [Potassium bromide], for which the Coagulation time under setting [1] was found to be 11.4 s.
For the compound `[Br-].[Na+]` [Sodium bromide], the “coagulation time versus addition amount (FIG. 3)” value is “prolonged in an addition concentration-dependent manner”. Under setting [1], this compound yielded a Coagulation time of 11.3 s.
In the case of `Cl.N=C(N)NCCC[C@H](N)C(=O)O` [Arginine hydrochloride], the Coagulation time under setting [1] is 10.3 s.
The same measure, in the same setting: for `N=C(N)N` [Guanidine hydrochloride] the value was 10.3 s.
Same read-out and setting: then `N=C(N)N.O=P(O)(O)O` [Guanidine phosphate], with 10.4 s; and `[Cl-].[K+]` [Potassium chloride], with 10.8 s.
Take `[Cl-].[Na+]` [Sodium chloride]: the “coagulation time versus addition amount (FIG. 3)” value is listed as “prolonged in an addition concentration-dependent manner”. Moreover, under setting [1], the Coagulation time worked out at 10.7 s. Also, under setting [2], the Coagulation time is 11.6 s.
Under setting [1], `COC(=O)[C@@H](N)CCCNC(=N)N` [Arginine methyl ester] came in with a Coagulation time of 11 s.
